According to patent US20240207263A1, “SELECTIVE MODULATORS OF ATAXIA TELA[…] (ATM) KINASE AND USES THEREOF” (priority 2021, published 2024):
Like-named read-outs stand apart in the source and are kept apart here.

Tests used:
[1] = tested on: phosp-KAP1 in MCF-7 cells; experiment: phosp-KAP1 MCF-7 cellular potency assay (Assay f); format: cell-based; conditions: Homo sapiens
Procedure: Assay f): phosp-KAP1 MCF-7 Cellular Potency
MCF-7 cells were seeded to a 384-well cell-culture plate, 25 μl/well which were incubated at 37° C. and 5% CO2 for 24 hr. Test compounds were added to the 384-well plates. Etoposide at final concentration of 100 μM was then added to each well except Vehicle control wells, which were incubated at 37° C. and 5% CO2 for 1 hour. After medium removal, cells were fixed by the addition of 25 μl/well of 8% paraformaldehyde in PBSA and incubated for 20 minutes at room temperature. After the plates were rinsed 3 times with PBSA, 50 ul permeabilization buffer (0.1% Triton X-100 in PBS) was added and the plates were incubated for 20 minutes at room temperature. After the plates were rinsed with PBSA, block the cells by adding 50 μl of Odyssey Blocking Buffer in 384-well plate and then incubate for 1.5 hours at room temperature. Remove blocking buffer by Plate washer (BioTek ELx405 select CW). […] The plates were rinsed 5 times with PBST (0.1% Tween-20 in PBS).
• 1) Fluorescence intensity (FI) was detected for each well. • 2) % inhibition is calculated as follow:
[formula] • FIpositive: The average FI for the positive controls across the plate. • FIvehicle: The average FI for negative controls across the plate. • 3) Calculate IC50 and Plot effect-dose curve of compounds: • Calculate IC50 by fitting % inhibition values and log of compound concentrations to nonlinear regression (dose response−variable slope) with Graphpad prism 6.0.
Y=Bottom+(Top−Bottom)/(1+10^((Log IC50−X)*HillSlope)) • X: log of compounds concentration; Y: % inhibition

ATR = ATR (Homo sapiens (Human), UniProt Q13535); experiment: ATR biochemical potency assay (Assay b)
Procedure: Assay b): ATR Biochemical Potency
The plate was incubated at room temperature for 10 minutes. 2× peptide solutions were prepared with FAM-labeled peptide and ATP in the 1× kinase base buffer. […] 40 μl of stop buffer was added to stop reaction. Data were collected by Caliper.

mTOR = mTOR (Homo sapiens (Human), UniProt P42345); experiment: mTOR biochemical potency assay (Assay d)
Procedure: Assay d): mTOR Biochemical Potency
Solution of mTOR enzymes (Millipore, Cat. No. 14-770) was prepared in 1× kinase buffer at 4-fold of the final concentration (final concentration: 6 nM) in the assay. 2.5 μl of kinase solution was added to each well of the 384-well assay plate, which contains 2.5 μl of compounds with serially diluted concentration. 2× substrate solution was prepared with ULight-4E-BP1 (Thr37/46) Peptide (PE, Cat. No. TRF0128-M) and ATP in 1× kinase reaction buffer at 2-fold of the final concentration of each reagent in the assay. 5 μl of substrate solution was added to each well of the assay plate to start reaction. The assay plate was incubated at room temperature for 30 minutes. Detection solution of kinase quench buffer (EDTA) and Eu-anti-phospho-4E-BP1 antibody (Thr37/46) (PE, Cat. No. TRF0216-M) were prepared at 2-fold the desired final concentrations of each reagent in Lance detection buffer. 10 μl of detection solution buffer was added to each well of the assay plate.

ATM = ATM (Homo sapiens (Human), UniProt Q13315); experiment: biochemical; format: biochemical; conditions: read-out: ATM IC50
From the text: Assay a): ATM Biochemical Potency
Data was collected by Caliper.

DNA-PK = DNA-PK (Homo sapiens (Human), UniProt P78527); experiment: DNA-PK biochemical assay (Assay e)
Procedure: Assay e): DNA-PK Biochemical Assay
The final concentration: Substrate 0.2 ug/ml and ATP 20 uM. […] The plate was equilibrated for 2 hr at room temperature.

PIK3Cγ (pp110γ) = PIK3Cγ (pp110γ) (Homo sapiens (Human), UniProt P48736); experiment: PI3K biochemical potency assay (Assay c), PIK3Cγ
PIK3Cγ (pp110γ), sequence (P48736 whole entry): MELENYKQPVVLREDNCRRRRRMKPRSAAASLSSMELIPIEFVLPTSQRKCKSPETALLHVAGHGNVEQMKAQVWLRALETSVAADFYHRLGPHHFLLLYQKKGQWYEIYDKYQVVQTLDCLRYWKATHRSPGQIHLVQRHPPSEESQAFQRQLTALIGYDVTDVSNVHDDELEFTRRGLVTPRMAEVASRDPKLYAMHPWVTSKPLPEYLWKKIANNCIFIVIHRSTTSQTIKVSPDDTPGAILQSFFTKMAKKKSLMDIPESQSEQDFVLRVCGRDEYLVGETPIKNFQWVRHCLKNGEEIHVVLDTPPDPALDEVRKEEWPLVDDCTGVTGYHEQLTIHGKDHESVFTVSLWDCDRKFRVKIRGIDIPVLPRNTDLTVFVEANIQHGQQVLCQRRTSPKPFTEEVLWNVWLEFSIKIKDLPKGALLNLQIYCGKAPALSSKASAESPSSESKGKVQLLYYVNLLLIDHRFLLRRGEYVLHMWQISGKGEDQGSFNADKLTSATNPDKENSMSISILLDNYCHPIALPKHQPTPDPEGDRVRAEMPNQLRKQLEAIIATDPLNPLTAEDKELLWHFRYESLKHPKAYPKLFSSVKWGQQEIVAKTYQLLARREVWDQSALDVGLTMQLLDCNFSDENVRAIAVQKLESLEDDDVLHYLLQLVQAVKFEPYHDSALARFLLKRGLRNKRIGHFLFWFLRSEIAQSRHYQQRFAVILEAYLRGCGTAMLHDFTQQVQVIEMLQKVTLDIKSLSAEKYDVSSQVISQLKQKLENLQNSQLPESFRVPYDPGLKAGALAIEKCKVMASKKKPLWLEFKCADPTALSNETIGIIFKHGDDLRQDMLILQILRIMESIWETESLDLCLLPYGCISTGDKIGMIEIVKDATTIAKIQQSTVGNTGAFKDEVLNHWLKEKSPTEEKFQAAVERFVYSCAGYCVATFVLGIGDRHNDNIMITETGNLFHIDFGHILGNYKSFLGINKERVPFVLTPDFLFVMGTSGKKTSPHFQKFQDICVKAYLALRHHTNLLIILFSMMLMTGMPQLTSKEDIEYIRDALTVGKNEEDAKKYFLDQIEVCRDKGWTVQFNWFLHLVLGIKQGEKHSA
Procedure: Assay c): PI3K Biochemical Potency
(§1) 2.5 μl of kinase solution was added to each well of the 384-well assay plate, which contains 2.5 μl of compounds with serially diluted concentration. 2× substrate solution was prepared with PIP2 substrate and ATP in 1× kinase reaction buffer at 2-fold of the final concentration of each reagent in the assay. 5 μl of substrate solution was added to each well of the assay plate to start reaction. The assay plate was incubated at room temperature for 1 hour. 5 μl reaction mix was transferred to a new 384 well plate. 5 μl of ADP-Glo reagent (Promega, Cat. No. v9102/3) was added to each well of the new assay plate to stop the reaction. The plate was shaken slowly and equilibrated for 40 minutes. 10 μl kinase detection reagents were added to each well, which was equilibrated for 60 minutes before read on a plate reader (Envision) for luminescence.

PIK3Cδ = PIK3Cδ (Homo sapiens (Human), UniProt O00329); experiment: PI3K biochemical potency assay (Assay c), PIK3Cδ
PIK3Cδ, sequence (O00329 whole entry, looked up): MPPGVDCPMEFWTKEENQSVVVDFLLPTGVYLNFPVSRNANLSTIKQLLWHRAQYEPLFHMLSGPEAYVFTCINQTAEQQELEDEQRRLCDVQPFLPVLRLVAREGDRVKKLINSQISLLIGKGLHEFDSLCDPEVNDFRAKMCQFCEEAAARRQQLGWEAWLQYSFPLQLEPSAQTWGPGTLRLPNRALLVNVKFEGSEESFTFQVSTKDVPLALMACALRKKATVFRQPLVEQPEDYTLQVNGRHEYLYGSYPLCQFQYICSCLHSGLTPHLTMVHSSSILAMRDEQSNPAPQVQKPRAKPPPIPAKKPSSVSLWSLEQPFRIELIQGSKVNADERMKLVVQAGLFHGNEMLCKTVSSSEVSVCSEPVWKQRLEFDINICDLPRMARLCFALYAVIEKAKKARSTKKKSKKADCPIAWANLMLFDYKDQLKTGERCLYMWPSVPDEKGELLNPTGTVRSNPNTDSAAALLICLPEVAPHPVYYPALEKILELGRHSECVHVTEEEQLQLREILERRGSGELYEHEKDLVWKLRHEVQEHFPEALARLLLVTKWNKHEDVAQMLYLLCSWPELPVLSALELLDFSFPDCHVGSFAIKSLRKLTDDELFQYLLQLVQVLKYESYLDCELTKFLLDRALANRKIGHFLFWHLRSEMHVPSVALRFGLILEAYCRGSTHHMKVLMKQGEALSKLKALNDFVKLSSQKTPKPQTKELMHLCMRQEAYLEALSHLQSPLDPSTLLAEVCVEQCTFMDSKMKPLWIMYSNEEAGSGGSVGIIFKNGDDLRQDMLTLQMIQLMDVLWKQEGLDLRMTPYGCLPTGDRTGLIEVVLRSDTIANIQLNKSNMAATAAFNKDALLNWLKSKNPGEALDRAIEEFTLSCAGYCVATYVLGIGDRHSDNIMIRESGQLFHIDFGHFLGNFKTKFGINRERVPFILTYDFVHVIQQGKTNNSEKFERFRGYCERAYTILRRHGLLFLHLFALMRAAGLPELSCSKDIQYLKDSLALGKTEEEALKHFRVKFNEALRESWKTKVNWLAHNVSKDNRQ
PIK3Cδ, sequence (P27986 whole entry partner, looked up): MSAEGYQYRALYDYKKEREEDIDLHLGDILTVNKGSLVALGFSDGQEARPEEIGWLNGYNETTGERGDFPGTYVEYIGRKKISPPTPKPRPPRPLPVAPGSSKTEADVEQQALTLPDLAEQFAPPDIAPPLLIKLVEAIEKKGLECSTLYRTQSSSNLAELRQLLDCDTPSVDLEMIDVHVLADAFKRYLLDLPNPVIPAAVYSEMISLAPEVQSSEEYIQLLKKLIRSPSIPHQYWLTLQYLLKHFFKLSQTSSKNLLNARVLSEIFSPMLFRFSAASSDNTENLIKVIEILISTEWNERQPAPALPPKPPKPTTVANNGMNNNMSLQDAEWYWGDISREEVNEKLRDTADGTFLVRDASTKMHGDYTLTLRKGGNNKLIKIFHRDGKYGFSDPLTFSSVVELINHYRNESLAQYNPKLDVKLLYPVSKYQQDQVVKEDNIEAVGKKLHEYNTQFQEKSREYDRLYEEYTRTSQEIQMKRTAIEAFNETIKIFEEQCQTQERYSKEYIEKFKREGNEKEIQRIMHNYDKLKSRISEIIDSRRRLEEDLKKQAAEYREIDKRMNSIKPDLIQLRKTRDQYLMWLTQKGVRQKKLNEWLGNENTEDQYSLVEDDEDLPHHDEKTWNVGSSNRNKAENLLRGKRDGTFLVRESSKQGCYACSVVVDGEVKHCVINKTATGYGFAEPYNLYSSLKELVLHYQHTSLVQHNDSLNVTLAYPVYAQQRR
Procedure: Assay c): PI3K Biochemical Potency
as §1

PI3Kα (p110α/p85a) = PI3Kα (p110α/p85a) (Homo sapiens (Human), UniProt P42336); experiment: PI3K biochemical potency assay (Assay c), PI3Kα
PI3Kα (p110α/p85a), sequence (P42336 whole entry, looked up): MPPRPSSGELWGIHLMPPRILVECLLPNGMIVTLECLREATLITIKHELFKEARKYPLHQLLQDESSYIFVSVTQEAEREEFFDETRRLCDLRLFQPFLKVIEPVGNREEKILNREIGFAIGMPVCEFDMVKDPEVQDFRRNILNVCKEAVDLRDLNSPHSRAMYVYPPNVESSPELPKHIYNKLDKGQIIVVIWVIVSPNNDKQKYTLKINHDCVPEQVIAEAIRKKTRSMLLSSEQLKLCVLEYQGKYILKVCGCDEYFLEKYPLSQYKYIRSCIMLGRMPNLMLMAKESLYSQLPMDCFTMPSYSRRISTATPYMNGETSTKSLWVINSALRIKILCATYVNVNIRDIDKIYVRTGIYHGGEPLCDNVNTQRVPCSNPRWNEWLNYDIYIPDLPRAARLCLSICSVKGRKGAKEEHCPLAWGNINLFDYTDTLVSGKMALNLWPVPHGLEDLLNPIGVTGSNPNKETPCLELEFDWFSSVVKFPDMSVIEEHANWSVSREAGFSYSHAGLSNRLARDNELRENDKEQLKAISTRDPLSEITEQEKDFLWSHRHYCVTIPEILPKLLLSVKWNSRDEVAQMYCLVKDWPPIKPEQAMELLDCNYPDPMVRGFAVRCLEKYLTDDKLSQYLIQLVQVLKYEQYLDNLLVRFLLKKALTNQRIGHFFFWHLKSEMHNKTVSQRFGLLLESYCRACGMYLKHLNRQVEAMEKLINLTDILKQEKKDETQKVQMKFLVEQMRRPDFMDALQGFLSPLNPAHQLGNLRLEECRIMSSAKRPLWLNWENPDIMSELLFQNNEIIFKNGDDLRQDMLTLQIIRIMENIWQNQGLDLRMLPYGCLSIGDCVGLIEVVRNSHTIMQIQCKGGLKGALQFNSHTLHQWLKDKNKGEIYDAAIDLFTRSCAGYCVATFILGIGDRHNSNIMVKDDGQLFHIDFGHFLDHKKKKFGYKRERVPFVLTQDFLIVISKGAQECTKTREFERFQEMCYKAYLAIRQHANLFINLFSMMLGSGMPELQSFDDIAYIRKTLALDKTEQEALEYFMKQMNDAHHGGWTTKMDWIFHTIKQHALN
PI3Kα (p110α/p85a), sequence (P27986 whole entry partner, looked up): as the sequence (P27986 whole entry partner, looked up) above
Procedure: Assay c): PI3K Biochemical Potency
as §1

PIK3Cβ (p110β) = PIK3Cβ (p110β) (Homo sapiens (Human), UniProt P42338); experiment: PI3K biochemical potency assay (Assay c), PIK3Cβ
PIK3Cβ (p110β), sequence (P42338 whole entry, looked up): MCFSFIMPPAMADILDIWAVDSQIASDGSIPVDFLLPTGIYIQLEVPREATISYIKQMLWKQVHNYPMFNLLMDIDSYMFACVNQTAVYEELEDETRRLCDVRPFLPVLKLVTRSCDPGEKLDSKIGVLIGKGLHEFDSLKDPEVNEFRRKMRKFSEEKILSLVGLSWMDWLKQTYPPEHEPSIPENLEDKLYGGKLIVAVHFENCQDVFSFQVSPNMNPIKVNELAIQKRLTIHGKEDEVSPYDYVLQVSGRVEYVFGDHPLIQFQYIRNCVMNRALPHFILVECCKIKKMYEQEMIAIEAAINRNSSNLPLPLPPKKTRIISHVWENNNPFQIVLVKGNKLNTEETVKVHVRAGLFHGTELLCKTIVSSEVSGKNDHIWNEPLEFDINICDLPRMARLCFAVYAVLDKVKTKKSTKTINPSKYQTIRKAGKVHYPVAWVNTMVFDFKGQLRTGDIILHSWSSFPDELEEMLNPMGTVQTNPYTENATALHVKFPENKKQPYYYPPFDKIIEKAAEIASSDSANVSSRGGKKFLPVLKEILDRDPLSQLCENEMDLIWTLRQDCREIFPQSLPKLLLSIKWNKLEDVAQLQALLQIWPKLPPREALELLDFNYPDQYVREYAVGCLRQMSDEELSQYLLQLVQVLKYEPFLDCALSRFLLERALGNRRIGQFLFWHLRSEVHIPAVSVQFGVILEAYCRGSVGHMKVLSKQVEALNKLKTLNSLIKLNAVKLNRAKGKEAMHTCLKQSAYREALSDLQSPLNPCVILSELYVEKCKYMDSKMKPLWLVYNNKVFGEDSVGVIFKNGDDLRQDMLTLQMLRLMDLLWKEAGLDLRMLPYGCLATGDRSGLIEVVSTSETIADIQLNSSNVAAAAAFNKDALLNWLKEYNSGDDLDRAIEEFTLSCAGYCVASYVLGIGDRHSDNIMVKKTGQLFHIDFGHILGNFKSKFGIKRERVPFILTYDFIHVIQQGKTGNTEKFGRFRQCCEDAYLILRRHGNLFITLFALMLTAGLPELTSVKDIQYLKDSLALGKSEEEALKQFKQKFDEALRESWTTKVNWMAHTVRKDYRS
PIK3Cβ (p110β), sequence (P27986 whole entry partner, looked up): as the sequence (P27986 whole entry partner, looked up) above
Procedure: Assay c): PI3K Biochemical Potency
as §1

[2] = target: ATM (phospho-ATM Ser1981) in SN38 treated HT-29 cells (Homo sapiens (Human), UniProt Q13315); experiment: cell-based
Procedure: Assay g): ATM SN-38 HT-29 Cellular Potency
SN38 causes single strand DNA breaks (SSBs) which are converted to double strand breaks (DSBs) during replication. ATM plays role of repairing DSBs. Inhibition of ATM was evaluated in SN38 treated HT-29 cells (ATCC, Cat #HTB-38) by high-Content Imaging System
The graphical views were then generated using Prism 7.0 (Graphpad).

FaDu xenograft = FaDu xenograft model, radiation combination (Assay i); format: in vivo, mouse; conditions: for tumor response in FaDu xenograft efficacy study: oral compound in combination with IR (2 Gy per day, 5 days per cycle); for Inhibition (% TGI) Combo: combo with IR
Procedure: Assay i): FaDu Xenograft Model
Cell culture: FaDu tumor cells were cultured in an EMEM medium containing inactivated 10% fetal bovine serum, 100 U/ml penicillin and 100 μg/ml streptomycin in a 37° C., 5% CO2 incubator.
Inoculation and grouping: Xenografts were established by implantation of 100 μl of Fadu tumor cell suspension (5×10^6 cells/mouse) subcutaneously into the right flank of female immune-compromised BALB/c nude mice at least 6 weeks of age. Tumours were measured in two dimensions with calipers and the tumour volume was calculated using the following formula: tumor volume=(length×width^2)×0.5. When the average tumor volume reached 100 to 150 mm^3, tumour-bearing mice were randomized into treatment groups.
Treatment and tumor assessment: Animals received 3 to 6 cycles of treatment with compounds combined with radiation therapy. Each cycle included 5 consecutive treatment day plus 2 days' rest. Ionizing radiation was administered using a fractionated schedule of 2 Gy per day administered over 5 consecutive days (total radiation dose=10 Gy/cycle). Compound was given orally 10 minutes before irradiation. The tumour volume and body weight of the mice were measured twice weekly.
Statistical Analysis: The One-Way ANOVA test was used for statistical analysis of tumor volume between groups, and p<0.05 was considered as a significant difference.

[3] = MCF7, MCF-7 cells, etoposide, read-out: Etoposide MCF-7 cellular IC50

Compound | IC50 (ATR) [µM] | IC50 (mTOR; read-out: mTor IC50) [µM] | IC50 (ATM) [µM] | IC50 (DNA-PK) [µM] | IC50 (PIK3Cγ (pp110γ); read-out: PI3Kγ IC50) [µM] | IC50 (PIK3Cδ; read-out: PI3Kδ IC50) [µM] | IC50 (PI3Kα (p110α/p85a); read-out: PI3Kα IC50) [µM] | IC50 (PIK3Cβ (p110β); read-out: PI3Kβ IC50) [µM] | IC50 (PIK3Cγ (pp110γ)) [µM] | IC50 (PIK3Cδ) [µM] | IC50 (PI3Kα (p110α/p85a)) [µM] | IC50 (mTOR) [µM] | IC50 (PIK3Cβ (p110β)) [µM] | other results
C[C@@H](OCCN1CCC2(CC1)CC2)c1ccc(-c2ccc3nnc4c(c3c2)n(C2CCOCC2)c(=O)n4C)cn1 [Example 107, (R)-8-(6-(1-(2-(6-azaspiro[2.5]octan-6-yl)ethoxy)ethyl)pyridin-3-yl)-3-methyl-1-(tetrahydro-2H-pyran-4-yl)-1H-imidazo[4,5-c]cinnolin-2(3H)-one] | > 10 | > 10 | – | – | – | – | – | – | – | – | – | – | – | IC50 ([1]; MCF7, read-out: Etoposide MCF-7 cellular IC50): 0.012 µM
CC(C)n1c(=O)n(C)c2nnc3ccc(-c4ccc([C@H](OCCN5CCCC5)C(F)(F)F)nc4)cc3c21 [Example 184, (S)-1-isopropyl-3-methyl-8-(6-(2,2,2-trifluoro-1-(2-(pyrrolidin-1-yl)ethoxy)ethyl)pyridin-3-yl)-1,3-dihydro-2H-imidazo[4,5-c]cinnolin-2-one] | > 10 | > 10 | 0.0028 | > 10 | > 10 | > 10 | > 10 | > 10 | – | – | – | – | – | –
CC(C)n1c(=O)n(C)c2nnc3ccc(-c4ccc([C@@H](C)OCCN5CCCC5)nc4)cc3c21 [Example 62, (R)-1-isopropyl-3-methyl-8-(6-(1-(2-(pyrrolidin-1-yl)ethoxy)ethyl)pyridin-3-yl)-1,3-dihydro-2H-imidazo[4,5-c]cinnolin-2-one] | > 10 | > 10 | 0.0078 | – | – | – | – | – | – | – | – | – | – | IC50 [2]: 0.021 µM; tumor response in FaDu xenograft efficacy study (FaDu xenograft): tumor xenograft regression was observed and tumors did not relapse until the end of the study; Inhibition (% TGI) Combo (FaDu xenograft; total IR 30 Gy (3 cycles), 45 mg/kg PO. BID): 98.7 ± 0.51 % TGI; Inhibition (% TGI) Combo (FaDu xenograft; total IR 60 Gy (6 cycles), 10 mg/kg PO. BID): 80.4 ± 2.20 % TGI; Inhibition (% TGI) Combo (FaDu xenograft; total IR 60 Gy (6 cycles), 30 mg/kg PO. BID): 93.6 ± 1.33 % TGI
COC1CCN(CCO[C@H](C)c2ccc(-c3ccc4nnc5c(c4c3)n(C(C)C)c(=O)n5C)cn2)CC1 [Example 56, (R)-1-isopropyl-8-(6-(1-(2-(4-methoxypiperidin-1-yl)ethoxy)ethyl)pyridin-3-yl)-3-methyl-1H-imidazo[4,5-c]cinnolin-2(3H)-one] | > 10 | > 10 | 0.0032 | > 10 | > 10 | > 10 | > 10 | > 10 | – | – | – | – | – | –
CC(C)n1c(=O)n(C)c2nnc3ccc(-c4ccc([C@@H](C)OCCN5CC[C@@H](C)C5)nc4)cc3c21 [Example 77, 1-isopropyl-3-methyl-8-(6-((R)-1-(2-((R)-3-methylpyrrolidin-1-yl)ethoxy)ethyl)pyridin-3-yl)-1H-imidazo[4,5-c]cinnolin-2(3H)-one] | > 10 | > 10 | 0.0048 | > 10 | > 10 | > 10 | > 10 | > 10 | – | – | – | – | – | –
CC(C)n1c(=O)n(C)c2nnc3ccc(-c4ccc([C@@H](OCCN5CCCC5)C(F)(F)F)nc4)cc3c21 [Example 185, (R)-1-isopropyl-3-methyl-8-(6-(2,2,2-trifluoro-1-(2-(pyrrolidin-1-yl)ethoxy)ethyl)pyridin-3-yl)-1,3-dihydro-2H-imidazo[4,5-c]cinnolin-2-one] | > 10 | > 10 | 0.292 | > 10 | > 10 | > 10 | > 10 | > 10 | – | – | – | – | – | –
CC(C)n1c(=O)n(C)c2nnc3ccc(-c4ccc([C@@H](C)OCCN5CCC6(CC6)C5)nc4)cc3c21 [Example 53, (R)-8-(6-(1-(2-(5-azaspiro[2.4]heptan-5-yl)ethoxy)ethyl)pyridin-3-yl)-1-isopropyl-3-methyl-1H-imidazo[4,5-c]cinnolin-2(3H)-one] | > 10 | – | 0.0042 | – | – | – | – | – | > 10 | > 10 | > 10 | > 10 | > 10 | IC50 [1, 3]: 0.009 µM; IC50 ([2]; HT-29 cells, SN-38, read-out: SN-38 HT-29 cellular IC50): 0.011 µM
CC(C)n1c(=O)n(C)c2nnc3ccc(-c4ccc([C@@H](C)OCCN5CC[C@@H](OC6CC6)C5)nc4)cc3c21 [Example 76, 8-(6-((R)-1-(2-((R)-3-cyclopropoxypyrrolidin-1-yl)ethoxy)ethyl)pyridin-3-yl)-1-isopropyl-3-methyl-1H-imidazo[4,5-c]cinnolin-2(3H)-one] | > 10 | – | – | > 10 | – | – | – | – | > 10 | > 10 | > 10 | > 10 | > 10 | –
C[C@@H](OCCN1CCC2(CC2)C1)c1ccc(-c2ccc3nnc4c(c3c2)n(C2CCOCC2)c(=O)n4C)cn1 [Example 102, (R)-8-(6-(1-(2-(5-azaspiro[2.4]heptan-5-yl)ethoxy)ethyl)pyridin-3-yl)-3-methyl-1-(tetrahydro-2H-pyran-4-yl)-1H-imidazo[4,5-c]cinnolin-2(3H)-one] | > 10 | – | – | – | – | – | – | – | > 10 | > 10 | > 10 | > 10 | > 10 | tumor response in FaDu xenograft efficacy study (FaDu xenograft): tumor xenograft regression was observed and tumors did not relapse until the end of the study
CO[C@@H]1CCN(CCO[C@H](C)c2ccc(-c3ccc4nnc5c(c4c3)n(C3CCOCC3)c(=O)n5C)cn2)C1 [Example 112, 8-(6-((R)-1-(2-((R)-3-methoxypyrrolidin-1-yl)ethoxy)ethyl)pyridin-3-yl)-3-methyl-1-(tetrahydro-2H-pyran-4-yl)-1H-imidazo[4,5-c]cinnolin-2(3H)-one] | > 10 | > 10 | 0.0078 | – | – | – | – | – | – | – | – | – | – | IC50 [1, 3]: 0.02 µM; IC50 [2]: 0.018 µM; Inhibition (% TGI) Combo (FaDu xenograft; total IR 40 Gy (4 cycles), 30 mg/kg PO. BID): 77.3 ± 1.67 % TGI; Inhibition (% TGI) Combo (FaDu xenograft; total IR 40 Gy (4 cycles), 60 mg/kg PO. BID): 79.6 ± 4.20 % TGI; Inhibition (% TGI) Combo (FaDu xenograft; total IR 40 Gy (4 cycles), 100 mg/kg PO. BID): 82.9 ± 1.77 % TGI
